{
  "source": "patent US7067254B2",
  "about": "“Diagnosis and treatment of inflammation and hyperactive immune conditions” (Board of Regents, The University of Texas System, priority 2001, dated 2006)",
  "key": {"Pam 212 keratinocytes [1]": {"test_system": "Pam 212 keratinocytes", "assay": "LDH release from Pam 212 keratinocytes (CytoTox 96 assay kit)", "assay_type": "cell-based, mouse", "procedure": "(§1) FIGS. 3A, 3B, & 3C. […] (FIG. 3A), Pam 212 keratinocytes were treated with croton oil (CO), benzalkonium chloride (BAC), or ethyl phenylpropiolate (EPP) at the indicated concentrations or exposed to UVB irradiation at the indicated doses. […] (FIG. 3C), Pam 212 keratinocytes and XS52 LC were co-cultured at the indicated cell densities and treated for 10 min with PBS alone or with 0.0015% BAC. All data shown in this figure are representative sets of results (mean±SD, n=3) from three independent experiments. * p<0.05; ** p<0.01 (two-tailed Student's t-test).\n(§2) ATP and ADP released by endothelial cells and platelets are known to act as pro-inflammatory mediators in the vascular system."}, "Pam 212 keratinocytes [2]": {"test_system": "Pam 212 keratinocytes", "assay": "ATP and ADP release from Pam 212 keratinocytes after skin irritant chemicals (luciferin-luciferase, pyruvate kinase)", "assay_type": "cell-based, mouse", "conditions": "for ATP and ADP levels in culture supernatants: Pam 212 keratinocytes, 10 min incubation; for ATP release from Pam 212 keratinocytes: in vitro treatment, ATP in culture supernatants", "procedure": "as §1\nAs the amount of ATP is directly proportional to the light emitted, quantification of the emitted light provides a measure of the amount of ATP. […] Cellular ATP release is then measured by: obtaining cells growing in culture; replacing the culture medium with a buffer; adding the ATP releasing agent (chemical irritant or a modulator of an NTPDase-mediated immune response); obtaining a sample of the buffer surrounding the cells after allowing sufficient time for ATP release by the cell in response to the irritant or modulator of an NTPDase-mediated immune response; adding luciferin and luciferase to this buffer; and quantitating the light released using a luminometer. A negative control can comprise obtaining the same reading with no cells; and/or obtaining the same reading with no added ATP releasing agent. The data are then analyzed by comparing to the standard ATP curve. Generally the cells in such assays may be grown in a multi-well format.\nAdditionally, the release of ADP into culture media can be measured by the pyruvate kinase-mediated conversion to ATP. This enzymatic assay utilizes pyruvate kinase (PK) which catalyzes the following reaction: Phospho(enol)pyruvate+ADP→Pyruvate+ATP\nas §2"}, "[3]": {"conditions": "mouse, in vivo", "description": "(§3) FIGS. 4A, 4B, 4C, 4D, 4E, 4F, 4G, & 4H. Irritant contact hypersensitivity responses in CD39-deficient mice. CD39^−/− mice (circles), CD39^+/− mice (triangles) or CD39^+/+ mice (squares) received topical application of 1% croton oil (FIG. 4A), 10% BAC (FIG. 4B), or 30% EPP (FIG. 4C) on the right ear and vehicle alone on the left ear. […] Statistical significant differences compared to the CD39^+/+ mice or to the CD39^+/− mice are indicated by asterisks or sharps, respectively (*^/# p<0.05 and **^/## p<0.01; two-tailed Student's t test). FIG. 4D, Ear skin samples were harvested from CD39^+/+ or CD39^−/− mice 5 days after topical application of vehicle alone or 1% CO and processed to histological analyses after H&E staining (original magnification: ×250). FIG. 4E, CD39^−/− mice (n=6) or C57BL/6 wild-type mice (n=10) (FIG. 4F) received local injections of apyrase on the right ear (closed circles) or PBS alone on the left ear (open circles) before and after topical application of 1% CO on both ears. The data shown are the mean±SEM of the swelling responses (the ear thickness after CO application minus the baseline thickness before application) at the indicated time points. Statistical significant differences (one-tailed Student's t-test) are indicated by asterisks (*p<0.05 and **p<0.01). […]"}, "endothelial cells": {"test_system": "endothelial cells", "conditions": "soluble apyrase added in the medium; Imai et al., 2000; cited from earlier work"}, "bone marrow-derived DC [4]": {"test_system": "bone marrow-derived DC", "assay": "ATP-induced IL-6 secretion by bone marrow-derived DC (ELISA)", "assay_type": "cell-based, mouse", "description": "(§4) FIGS. 6A, 6B, & 6C. P2Y receptor desensitization in CD39^−/− DC. […] (FIG. 6C), CD39^−/− or CD39^+/+ DC were pre-treated with apyrase or buffer alone and then examined for ATP-mediated activation responses. Data shown are the means±s.d. (n=3) of cell viability (left), IL-6 production (middle), and LY uptake (right). Statistically, significant differences are indicated by asterisks (** P<0.01).\n(§5) Measurement of ATP responsiveness."}, "cytotoxic T-cells": {"test_system": "cytotoxic T-cells", "conditions": "cited from earlier work"}, "[5]": {"assay": "Local apyrase injection in croton oil-induced ear swelling", "assay_type": "in vivo, mouse", "description": "as §3"}, "bone marrow-derived DC [6]": {"test_system": "bone marrow-derived DC", "assay": "ATP-mediated cytolysis of bone marrow-derived DC (cell viability, 7-AAD staining)", "assay_type": "cell-based, mouse", "description": "as §4, §5"}, "bone marrow-derived DC [7]": {"test_system": "bone marrow-derived DC", "assay": "ATP-induced pore formation in bone marrow-derived DC (lucifer yellow uptake)", "assay_type": "cell-based, mouse", "conditions": "3 mM ATP, 15 min", "description": "as §4, §5"}, "[8]": {"assay": "Inflammatory skin responses to locally administered ATP", "assay_type": "in vivo, mouse"}, "IA+ epidermal cells": {"test_system": "IA+ epidermal cells", "assay": "LC emigration: surface densities of IA+ epidermal cells after local injection of TNFα", "assay_type": "in vivo, mouse", "conditions": "CD39+/+ mice; local injection 100 ng/animal, 48 hr", "description": "FIGS. 5A, 5B, 5C, 5D, 5E, 5F, 5G, & 5H. Attenuated immune responses in CD39-deficient mice. […] The data shown are the means±s.e.m. (n=10) of the swelling responses. […] (FIG. 5C) Mice received local injection of TNFα and examined for surface densities of IA^+ epidermal cells (means±s.d., n=3). At 24 hr after topical application of FITC, the DLN were examined for the numbers of migratory LC (means±s.d., n=3) (FIG. 5D) localization of FITC^+ migratory LC after counter-staining of the B cell areas with PE-conjugated B220 mAb (FIG. 5E), and for the surface phenotype of FITC^+ migratory LC (FIG. 5F). Closed and open histograms represent the staining profiles with the indicated mAb and control IgG, respectively. Numbers in the parentheses indicate the mean fluorescence intensities (MFI). (FIG. 5G), Migratory LC isolated from OX-painted CD39^−/− mice (circles) or CD39^+/+ mice (squares) were co-cultured with OX-reactive, wild-type T-cells. The data shown are the means±s.d. (n=3) of interferon-γ (IFN-γ) concentrations in the culture supernatants (* P<0.05). (FIG. 5H), Bone marrow-derived DC generated from CD39^−/− mice (circles) or CD39^+/+ mice (squares) were pulsed with TNBS and injected into CD39^+/+ mice. […]\nMeasurement of DC function. […] Maturational states of migratory LC were assessed by the surface expression of CD86 and CD40 by the FITC^+ populations in DLN. […]"}},
  "data": [
    {"molecule": "benzalkonium chloride", "values": [
      {"measurement": "release of lactate dehydrogenase (LDH)", "setting": "Pam 212 keratinocytes [1]", "value": "caused rapid release of lactate dehydrogenase (LDH)"},
      {"measurement": "ATP and ADP levels in culture supernatants", "setting": "Pam 212 keratinocytes [2]", "value": "detected at comparable levels"},
      {"measurement": "ATP release from Pam 212 keratinocytes", "setting": "Pam 212 keratinocytes [2]", "value": "triggered rapid ATP release in a time- and dose-dependent manner"},
      {"measurement": "ear swelling responses in CD39−/− mice compared with CD39+/+ mice", "setting": "[3]", "value": "amplified significantly"}
    ]},
    {"molecule": "CCOC(=O)C#Cc1ccccc1", "note": "[ethyl phenylpropiolate]", "values": [
      {"measurement": "release of lactate dehydrogenase (LDH)", "setting": "Pam 212 keratinocytes [1]", "value": "caused rapid release of lactate dehydrogenase (LDH)"},
      {"measurement": "ATP and ADP levels in culture supernatants", "setting": "Pam 212 keratinocytes [2]", "value": "detected at comparable levels"},
      {"measurement": "ATP release from Pam 212 keratinocytes", "setting": "Pam 212 keratinocytes [2]", "value": "triggered rapid ATP release in a time- and dose-dependent manner"},
      {"measurement": "ear swelling responses in CD39−/− mice compared with CD39+/+ mice", "setting": "[3]", "value": "amplified significantly"}
    ]},
    {"molecule": "apyrase", "values": [
      {"measurement": "inhibition of LPS-induced IL-1 secretion", "setting": "endothelial cells", "value": "can be inhibited"},
      {"measurement": "effect of apyrase pre-treatment on capacity of CD39−/− DC to secrete IL-6 upon ATP stimulation", "setting": "bone marrow-derived DC [4]; apyrase 5 U/ml, 10 min before 1 mM ATP", "value": "restored"},
      {"measurement": "effect on cytolytic capacity of cytotoxic T-cells", "setting": "cytotoxic T-cells", "value": "inhibited partially"},
      {"measurement": "effect on early phase ear swelling responses to CO in CD39−/− mice", "setting": "[5]; 0.2U/ear s.c. into ear 10 min before and 1 hr after 1% CO painting", "value": "diminished the extent of early phase responses"},
      {"measurement": "effect on CO-induced skin inflammation in wild-type C57BL/6 mice", "setting": "[5]; 0.2U/ear s.c. into ear before and 1 hr after 1% CO painting", "value": "further reduced the extent of CO-induced skin inflammation"},
      {"measurement": "effect of apyrase pre-treatment on susceptibility of CD39−/− DC to ATP-mediated cytolysis", "setting": "bone marrow-derived DC [6]; apyrase 5 U/ml, 10 min before 2.5 mM ATP", "value": "restored their susceptibility to ATP-mediated cytolysis"}
    ]},
    {"molecule": "Nc1ncnc2c1ncn2[C@@H]1O[C@H](COP(=O)(O)OP(=O)(O)OP(=O)(O)O)[C@@H](O)[C@H]1O", "note": "[ATP, adenosine triphosphate]", "values": [
      {"measurement": "IL-6 secretion in response to ATP", "setting": "bone marrow-derived DC [4]; CD39+/+ vs CD39−/− DC, 1 mM ATP, 16 hr", "value": "CD39^+/+ DC, but not CD39^−/− DC, secreted IL-6"},
      {"measurement": "ATP concentration that killed DC significantly", "setting": "bone marrow-derived DC [6]; CD39+/+ DC, 60 min incubation", "value": 2.5, "unit": "mM"},
      {"measurement": "ATP concentration up to which DC were resistant to cytolysis", "setting": "bone marrow-derived DC [6]; CD39−/− DC, 60 min incubation", "value": "up to 10 mM"},
      {"measurement": "ATP-induced pore formation (lucifer yellow uptake) in CD39−/− DC", "setting": "bone marrow-derived DC [7]", "value": "intact nucleotide responsiveness"},
      {"measurement": "inflammatory skin responses in CD39−/− mice", "setting": "[8]", "value": "markedly elevated inflammatory skin responses"}
    ]},
    {"molecule": "TNFα", "values": [
      {"measurement": "reduction in surface densities of IA+ epidermal cells", "setting": "IA+ epidermal cells", "value": "about 50%"}
    ]}
  ]
}
